Results from PubChem BioAssay (NCI).
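Following 48 hours of exposure in 96-well plates, responses at five concentrations were used to interpolate endpoints linearly. At the TGI there is no net growth.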

How the values were obtained:
Assay in all cases: NCI anticancer screen, dose series, 48 h
[1] = tested on: RXF-631 renal
[2] = tested on: XF 498 CNS
[3] = tested on: LXFL 529 NSCLC
[4] = tested on: M19-MEL melanoma
[5] = tested on: DMS 273 small cell lung

Question: Which results are given for `COc1cc2c(cc1OC)C(CC1=C(c3ccccc3)CN3CCc4cc(OC)c(OC)cc4C3C1)NCC2` (stereo not given)?
Answer: TGI [1]: 30.4 µM; TGI [2]: 25.9 µM; TGI [3]: 31.1 µM; TGI [4]: 30.7 µM; TGI [5]: 31.6 µM
